Results reported in patent publication US20180015111A1, “METHODS FOR ON DEMAND PRE-EXPOSURE PROPHYLACTIC TREATMENT OF HIV INFECTION” (INSERM (INSTITUT NATIONAL DE LA SANTE ET DE LA RECHERCHE …, priority 2015, published 2018).

Assay: Drug levels in plasma by LC-MS/MS as measure of adherence (Example 2)
Assay type: in vivo, human
Conditions: TDF-FTC group, first 113 participants enrolled; limit of detection 0.1 ng/ml tenofovir, 0.4 ng/ml FTC
Protocol: Pill count was the first measure of adherence. Participants were asked to return their study-drug bottles at each visit, and a pill count of unused medication was performed. We also measured drug levels in plasma in the first participants who were enrolled. Plasma was tested for the presence of tenofovir and FTC with the use of a validated liquid chromatography-tandem mass spectrometry method with a limit of detection of 0.1 ng per milliliter for tenofovir and 0.4 ng per milliliter for FTC. This plasma assay was able to detect drugs up to 9 days after intake.

SMILES | rate of detection in plasma [%]
Nc1nc(=O)n([C@@H]2CS[C@H](CO)O2)cc1F [FTC, 4-amino-5-fluoro-1-[(2R,5S)-2-(hydroxymethyl)-1,3-oxathiolan-5-yl]-1,2-dihydropyrimidin-2-one] | 82
C[C@H](Cn1cnc2c(N)ncnc21)OCP(=O)(O)O [tenofovir, ({[(2R)-1-(6-amino-9H-purin-9-yl)propan-2-yl]oxy}methyl)phosphonic acid] | 86
